# Data as given in article PMC11258614 (2024).
# Where a SMILES comes first, the peptide text is derived from it.
# What was measured:
# [1] = system: human c-Myc promoter G4 (DNA, G4) TGAGGGTGGGTAGGGTGGGTAA; assay: UV melting at 295 nm; settings: 30 mM sodium cacodylate pH 7.4, 0.5 mM EDTA, 4 μM DNA, DNA:peptide 1:50, derived from two Tm
# [2] = system: human c-Myc promoter G4 (DNA, G4) TGAGGGTGGGTAGGGTGGGTAA; assay: fluorescence titration of peptide with G4; settings: 30 mM sodium cacodylate pH 7.4, 0.5 mM EDTA, 25 °C, printed Ka in μM, Ka or Kd ambiguous
compound,measurement,setting,value
CC(C)C[C@H](NC(=O)[C@@H](N)CC(N)=O)C(=O)N[C@@H](CCC(=O)O)C(=O)N[C@@H](CCCCN)C(=O)N[C@@H](CCCCN)C(=O)N[C@@H](CCCCN)C(=O)N1CCC[C@H]1C(=O)NCC(=O)O (H-NLEKKKPG-OH),ΔTm,[1]; 100 mM K+,0.9 °C
same,ΔTm,[1]; 100 mM Na+,3.7 °C
same,Ka,[2]; 100 mM K+,0.1277 ± 0.073 µM
same,Ka,[2]; 100 mM Na+,0.1369 ± 0.008 µM
